Data reported in patent US20090226398A1, “ANTI-VIRAL COMPOUNDS, COMPOSITIONS, AND METHODS OF USE” (Genelabs Technologies, Inc., priority 2008, published 2009).

Test system: HCV replication
Experiment: Replicon Assay (Huh-lucubineo-ET cells, luciferase readout)
Type: cell-based
Conditions: Hepatitis C virus; ET (Huh-lucubineo-ET) HCV replicon cell line; luciferase activity 48-72 hours after compound addition; 6 dilutions
Summary of the method: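 Huh-lucubineo-ET cells stably carrying a firefly luciferase-ubiquitin-neo/NS3-5B ET replicon (adaptive mutations E1202G, T1280I, K1846T) were plated 24 h before compound, then treated at 5 or 50 μM or six 3-fold dilutions. Luciferase read 48-72 h later; % inhibition vs no-compound control, EC50/TC50 from Hill-equation fit.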

Structure (SMILES) | EC50 [nM]
COc1ccc(-c2ncc(Cn3cc4nc(-c5cccc(F)c5F)nc-4cn3)cn2)c(C(F)(F)F)c1 [Compound 271, 2-(2,3-Difluoro-phenyl)-5-[2-(4-methoxy-2-trifluoromethyl-phenyl)-pyrimidin-5-ylmethyl]-5H-imidazo[4,5-d]pyridazine] | 49
Fc1cccc(-c2nc3cnn(Cc4ccc(-c5ccc(C(F)(F)F)cc5)nn4)cc-3n2)c1F [Compound 116, 2-(2,3-Difluoro-phenyl)-5-[6-(4-trifluoromethyl-phenyl)-pyridazin-3-ylmethyl]-5H-imidazo[4,5-d]pyridazine] | ≥ 50000
CCCOc1ccc(-c2ccc(Cn3cc4nc(-c5cccc(F)c5F)nc-4cn3)nn2)c(C(F)(F)F)c1 [Compound 226, 2-(2,3-Difluoro-phenyl)-5-[6-(4-propoxy-2-trifluoromethyl-phenyl)-pyridazin-3-ylmethyl]-5H-imidazo[4,5-d]pyridazine] | 4
CCCOc1ccc(-c2ccc(Cn3cc4nc(-c5cccc(F)c5F)nc-4cn3)nc2)cc1 [Compound 247, 2-(2,3-Difluoro-phenyl)-5-[5-(4-propoxy-phenyl)-pyridin-2-ylmethyl]-5H-imidazo[4,5-d]pyridazine] | 5080
COc1ccc(-c2ccc(Cn3cc4nc(-c5cccc(F)c5F)nc-4cn3)c(OCCCN3CCOCC3)c2)c(C(F)(F)F)c1 [Compound 349, 2-(2,3-Difluoro-phenyl)-5-[4′-methoxy-3-(3-morpholin-4-yl-propoxy)-2′-trifluoromethyl-biphenyl-4-ylmethyl]-5H-imidazo[4,5-d]pyridazine] | 6260
Fc1cccc(-c2nc3cnn(Cc4ccc(-c5ccc(OCC6CCOC6)cc5C(F)(F)F)nn4)cc-3n2)c1F (stereo not drawn) [Compound 326, 2-(2,3-Difluoro-phenyl)-5-{6-[4-(tetrahydro-furan-3-ylmethoxy)-2-trifluoromethyl-phenyl]-pyridazin-3-ylmethyl}-5H-imidazo[4,5-d]pyridazine] | 1680
Fc1cccc(-c2nc3cnn(CCCc4ccc(C(F)(F)F)cc4C(F)(F)F)cc-3n2)c1F [Compound 270, 5-[3-(2,4-Bis-trifluoromethyl-phenyl)-propyl]-2-(2,3-difluoro-phenyl)-5H-imidazo[4,5-d]pyridazine] | 52500
COc1ccc(-c2ccc(Cn3cc4nc(-c5cccc(F)c5F)nc-4cn3)nc2)c(C(F)(F)F)c1 [Compound 243, 2-(2,3-Difluoro-phenyl)-5-[5-(4-methoxy-2-trifluoromethyl-phenyl)-pyridin-2-ylmethyl]-5H-imidazo[4,5-d]pyridazine] | 17
Oc1ccc(-c2ccc(Cn3cc4nc(-c5cccc(F)c5F)nc-4cn3)nn2)c(C(F)(F)F)c1 [Compound 350, 4-{6-[2-(2,3-Difluoro-phenyl)-imidazo[4,5-d]pyridazin-5-ylmethyl]-pyridazin-3-yl}-3-trifluoromethyl-phenol] | ≥ 50000
Cc1cccc(-c2ccc(Cn3cc4nc(-c5cccc(F)c5F)nc-4cn3)nn2)c1 [Compound 221, 2-(2,3-Difluoro-phenyl)-5-(6-m-tolyl-pyridazin-3-ylmethyl)-5H-imidazo[4,5-d]pyridazine] | ≥ 50000
CCCc1ccc(-c2ccc(Cn3cc4nc(-c5cccc(F)c5F)nc-4cn3)nn2)cc1 [Compound 220, 2-(2,3-Difluoro-phenyl)-5-[6-(4-propyl-phenyl)-pyridazin-3-ylmethyl]-5H-imidazo[4,5-d]pyridazine] | 520
Fc1cccc(-c2nc3cnn(Cc4ccc(-c5cncnc5)cc4)cc-3n2)c1F [Compound 293, 2-(2,3-Difluoro-phenyl)-5-(4-pyrimidin-5-yl-benzyl)-5H-imidazo[4,5-d]pyridazine] | ≥ 50000
Fc1ccccc1-c1nc2cnn(Cc3ccc(-c4ccc(C(F)(F)F)cc4C(F)(F)F)cn3)cc-2n1 [Compound 267, 5-[5-(2,4-Bis-trifluoromethyl-phenyl)-pyridin-2-ylmethyl]-2-(2-fluoro-phenyl)-5H-imidazo[4,5-d]pyridazine] | 1300
CCCCc1ccc(-c2ccc(Cn3cc4nc(-c5cccc(F)c5F)nc-4cn3)cn2)cc1C(F)(F)F [Compound 347, 5-[6-(4-Butyl-3-trifluoromethyl-phenyl)-pyridin-3-ylmethyl]-2-(2,3-difluoro-phenyl)-5H-imidazo[4,5-d]pyridazine] | 2590
Fc1cccc(-c2nc3cnn(Cc4ccc(-c5ccc(-c6cccnc6)cc5C(F)(F)F)nn4)cc-3n2)c1F [Compound 204, 2-(2,3-Difluoro-phenyl)-5-[6-(4-pyridin-3-yl-2-trifluoromethyl-phenyl)-pyridazin-3-ylmethyl]-5H-imidazo[4,5-d]pyridazine] | 656
Cc1nc(Cn2cc3nc(-c4cccc(F)c4F)nc-3cn2)ccc1-c1ccc(C(F)(F)F)cc1C(F)(F)F [Compound 337, 5-[5-(2,4-Bis-trifluoromethyl-phenyl)-6-methyl-pyridin-2-ylmethyl]-2-(2,3-difluoro-phenyl)-5H-imidazo[4,5-d]pyridazine] | 166
COc1ccc(-c2ccc(Cn3cc4nc(-c5cccc(F)c5F)nc-4cn3)c(N)n2)c(C(F)(F)F)c1 [Compound 242, 3-[2-(2,3-Difluoro-phenyl)-imidazo[4,5-d]pyridazin-5-ylmethyl]-6-(4-methoxy-2-trifluoromethyl-phenyl)-pyridin-2-ylamine] | 44

Structure (SMILES) | EC50 [nM]
COc1ccc(-c2ccc(Cn3cc4nc(-c5cccc(F)c5F)nc-4cn3)nn2)c(C(F)(F)F)c1 [Compound 238, 2-(2,3-Difluoro-phenyl)-5-[6-(4-methoxy-2-trifluoromethyl-phenyl)-pyridazin-3-ylmethyl]-5H-imidazo[4,5-d]pyridazine] | 6
CCc1ccc(-c2ccc(Cn3cc4nc(-c5cccc(F)c5F)nc-4cn3)nn2)cc1 [Compound 206, 2-(2,3-Difluoro-phenyl)-5-[6-(4-ethyl-phenyl)-pyridazin-3-ylmethyl]-5H-imidazo[4,5-d]pyridazine] | ≥ 50000
Fc1cc(-c2ccc(C(F)(F)F)cc2C(F)(F)F)ccc1Cn1cc2nc(-c3cccc(F)c3F)nc-2cn1 [Compound 257, 2-(2,3-Difluoro-phenyl)-5-(3-fluoro-2′,4′-bis-trifluoromethyl-biphenyl-4-ylmethyl)-5H-imidazo[4,5-d]pyridazine] | 45
Fc1cccc(-c2nc3cnn(Cc4ccc(-c5ccsc5)cc4)cc-3n2)c1F [Compound 272, 2-(2,3-Difluoro-phenyl)-5-(4-thiophen-3-yl-benzyl)-5H-imidazo[4,5-d]pyridazine] | 18700
COc1ccc(-c2ccc(Cn3cc4nc(-c5cccc(F)c5F)nc-4cn3)c(OCCCO)c2)c(C(F)(F)F)c1 [Compound 348, 3-{4-[2-(2,3-Difluoro-phenyl)-imidazo[4,5-d]pyridazin-5-ylmethyl]-4′-methoxy-2′-trifluoromethyl-biphenyl-3-yloxy}-propan-1-ol] | 279
Fc1cccc(-c2nc3cnn(Cc4cccc(-n5cccn5)c4)cc-3n2)c1F [Compound 291, 2-(2,3-Difluoro-phenyl)-5-(3-pyrazol-1-yl-benzyl)-5H-imidazo[4,5-d]pyridazine] | ≥ 50000
CC(F)(F)COc1ccc(-c2ccc(Cn3cc4nc(-c5cccc(F)c5F)nc-4cn3)nn2)c(C(F)(F)F)c1 [Compound 231, 2-(2,3-Difluoro-phenyl)-5-{6-[4-(2,2-difluoro-propoxy)-2-trifluoromethyl-phenyl]-pyridazin-3-ylmethyl}-5H-imidazo[4,5-d]pyridazine] | 164
COc1ccc(-c2ccc(Cn3cc4nc(-c5cccc(F)c5F)nc-4cn3)nc2N)c(C(F)(F)F)c1 [Compound 358, 6-[2-(2,3-Difluoro-phenyl)-imidazo[4,5-d]pyridazin-5-ylmethyl]-3-(4-methoxy-2-trifluoromethyl-phenyl)-pyridin-2-ylamine] | 291
COC(=O)c1cc(Br)ccc1Cn1cc2nc(-c3cccc(F)c3F)nc-2cn1 [Compound 312, 5-Bromo-2-[2-(2,3-difluoro-phenyl)-imidazo[4,5-d]pyridazin-5-ylmethyl]-benzoic acid methyl ester] | ≥ 50000
CC(C)(C)OCc1ccc(-c2ccc(Cn3cc4nc(-c5cccc(F)c5F)nc-4cn3)nn2)cc1 [Compound 214, 5-[6-(4-tert-Butoxymethyl-phenyl)-pyridazin-3-ylmethyl]-2-(2,3-difluoro-phenyl)-5H-imidazo[4,5-d]pyridazine] | 47400
Fc1cccc(-c2nc3cnn(Cc4ccc(-c5ccc(C(F)(F)F)cc5C(F)(F)F)nc4)cc-3n2)c1F [Compound 130, 5-[6-(2,4-Bis-trifluoromethyl-phenyl)-pyridin-3-ylmethyl]-2-(2,3-difluoro-phenyl)-5H-imidazo[4,5-d]pyridazine] | 8
CC(C)Cc1ccc(-c2ccc(Cn3cc4nc(-c5cccc(F)c5F)nc-4cn3)nn2)cc1 [Compound 208, 2-(2,3-Difluoro-phenyl)-5-[6-(4-isobutyl-phenyl)-pyridazin-3-ylmethyl]-5H-imidazo[4,5-d]pyridazine] | ≥ 50000
O=S(=O)(c1ccc(Cn2cc3nc(-c4cccc(F)c4F)nc-3cn2)cc1)N1CCOCC1 [Compound 275, 2-(2,3-Difluoro-phenyl)-5-[4-(morpholine-4-sulfonyl)-benzyl]-5H-imidazo[4,5-d]pyridazine] | ≥ 50000
Fc1cccc(-c2nc3cnn(Cc4ccc(N5CCOCC5)cc4)cc-3n2)c1F [Compound 303, 2-(2,3-Difluoro-phenyl)-5-(4-morpholin-4-yl-benzyl)-5H-imidazo[4,5-d]pyridazine] | 8530
Fc1cccc(-c2nc3cnn(CCCCc4ccc(C(F)(F)F)cc4C(F)(F)F)cc-3n2)c1F [Compound 269, 5-[4-(2,4-Bis-trifluoromethyl-phenyl)-butyl]-2-(2,3-difluoro-phenyl)-5H-imidazo[4,5-d]pyridazine] | 25000
Cc1nc(-c2ccc(Cn3cc4nc(-c5cccc(F)c5F)nc-4cn3)cc2)no1 [Compound 277, 2-(2,3-Difluoro-phenyl)-5-[4-(5-methyl-[1,2,4]oxadiazol-3-yl)-benzyl]-5H-imidazo[4,5-d]pyridazine] | ≥ 50000
